Measured values taken from paper PMC12381781, “Structural and functional insights into the selective inhibition of mutant tau aggregation by purpurin and oleocanthal in frontotemporal dementia” (Protein Science : A Publication of the Protein Society, 2025).
“Also recorded” adds a separate entry of the source.

How the values were obtained:
PHF6 = system: PHF6; design: method as in Viswanathan et al., [2020]; settings: reduced efficacy at higher peptide:compound ratios such as 5:1; ref Viswanathan et al., [2020]; cited from earlier work
[1] = design: method as in Viswanathan et al., [2020]; settings: in vitro studies; ref Viswanathan et al., [2020]; cited from earlier work
[2] = system: Tau RD P301S FRET Biosensor cells; assay: Biosensor cells treated with compound alone, no exogenous seeds; format: cell-based; settings: 48 h
Procedure: Figure S17. […] Tau RD P301S FRET Biosensor cells were treated with PUR or OLC at the indicated concentrations for 48 h in the absence of any exogenous tau seeds or aggregation mixtures. Cells were then imaged under the same conditions described in Figure 5 to assess spontaneous FRET signal (CFP/YFP inclusions) as a readout of intracellular tau aggregation. […] Scale bar: 100 µm.

R2R3 (WT) tau peptide = target: T1, R2R3 (WT) tau peptide (Homo sapiens, UniProt P10636); assay: SPR titration cycle kinetics, immobilized R2R3 (WT) peptide; format: binding
T1 construct: Peptides spanning R2R3—including PHF6 and PHF6*; purchased ProteoGenix (Schiltigheim, France); host or cells: chemical synthesis (custom peptide)
T1 sequence (P10636 592-653 limits assumed): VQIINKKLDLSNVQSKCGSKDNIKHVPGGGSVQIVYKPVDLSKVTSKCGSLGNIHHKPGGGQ
Procedure: SPR experiments were conducted using the Sierra® SPR‐24 Pro system (Bruker Daltonics, Bremen, Germany), featuring a gold‐coated microfluidic array (24 detection spots, 3 × 8 format). Data acquisition and kinetic analysis were performed using SPR Analyzer 4 software.
All experiments were conducted at 25°C using PBS (pH 7.4) supplemented with 0.05% Tween‐20 and 5% DMSO as the running buffer to ensure assay reproducibility. Assay components, including 96‐well microtiter plates (Part # 1862984; Burker) and Microplate and Reservoir Sealer (Part #1862985; Burker), were used for sample handling and were compatible with the Sierra SPR®‐24 Pro system (Bruker Daltonics, Billerica, MA, USA).
WT and mutant (P301L, V287I, and N279K) tau peptides were dissolved in 10 mM sodium acetate buffer (pH 5.0; Burker) and immobilized onto High‐Capacity Amine Sensor Surfaces (Part #1862614; Bruker) using the Amine Coupling Kit (Part #1862634; Bruker). The sensor surface was preconditioned with a Surface Elution Buffer (Part #1862656; Bruker Daltonics) and 0.1M HCl to remove contaminants and improve binding specificity. […]
PUR and OLC were prepared in PBS (pH 7.4) supplemented with 0.05% Tween‐20 and 5% DMSO. Compound interactions with tau peptides were pre‐screened using a concentration range of 1–100 μM, and subsequent binding kinetics were evaluated at optimized concentrations. […] Each analyte was sequentially injected, and association and dissociation phases were monitored to determine kinetic parameters.
SPR binding kinetics were assessed using the titration cycle kinetics (TCK) assay, which included consecutive association phases followed by a single dissociation phase. […] A reference blank injection was included for double referencing, and a single dissociation curve was recorded for the highest analyte concentration.
Sensorgrams were analyzed using the Kinetic Titration model, which was integrated into the global kinetic fitting model of the SPR Analyzer 4 software. […]

[3] = system: preformed R2R3 (V287I) fibrils; assay: Elongation of preformed R2R3 (V287I) fibrils, ThT; format: biochemical; settings: R2R3 V287I pre-aggregated 24 h, compound 10 μM
Procedure: Peptides were pre‐aggregated for 24 h with aggregation kinetics monitored by ThT fluorescence, after which 10 μM PUR or OLC was added, followed by an additional 24–30 h of incubation (Figure 4a). Aggregation kinetics was monitored by ThT fluorescence, and elongation was quantified as the AUC following compound addition, normalized to each replicate's maximum pre‐treatment fluorescence (Figure 4b). […] WT peptide fibril elongation was reduced to 15.5 ± 2.8% (PUR) and 45.2 ± 3.2% (OLC), and P301L peptide fibril elongation was limited to 31.8 ± 0.6% (PUR) and 85.6 ± 2.2% (OLC) (Figure 4b). Fluorescence microscopy imaging further confirmed the presence of reduced ThT‐positive aggregates following the addition of PUR and OLC (Figure S12). Similar inhibition trends, with PUR outperforming OLC, were also observed for V287I and N279K peptides (Figure S12).
Figure S13. […] (a) ThT fluorescence kinetics of pre-aggregated R2R3 (V287I and N279K ) tau peptides treated with PUR or OLC (10 µM). Peptides were first allowed to aggregate for 24 h, followed by compound addition and continued incubation for an additional 24-30 h. […] Curves are normalized to each replicate’s maximum pre-treatment ThT fluorescence. […] (b) Aggregation levels post-treatment, expressed as a percentage of control (untreated fibrils), calculated from the AUC after compound addition. […]

[4] = system: CCRF-CEM (human leukemic lymphoblast) cells; assay: MTS cytotoxicity assay, CCRF-CEM cells; format: cell-based; settings: 0-100 µM, 72 h
Procedure: Figure S16. Cytotoxic activity of PUR and OLC. Tau Biosensor and CCRF-CEM (human leukemic lymphoblast) cells were treated with increasing concentrations (0-100 µM) of PUR and OLC for 72 h. Cell viability was then assessed using the MTS assay. CCRF-CEM (human leukemic lymphoblasts) cells, known for their high sensitivity to cytotoxic agents ^1, were used as positive controls. […] Calculated IC50 values are indicated in the graphs. Mean ± SEM (n = 3).

## O=C1c2ccccc2C(=O)c2c(O)c(O)cc(O)c21 [PUR, purpurin]
PHF6
  PHF6 aggregation inhibition: inhibits PHF6 aggregation
[1]
  BBB permeation: can permeate the BBB
[2]
  induction of endogenous tau aggregation (FRET-positive inclusions) by compound alone: No FRET-positive aggregates were detected; also recorded: no FRET‐positive inclusions were detected
R2R3 (WT) tau peptide; R2R3 WT
  koff: 0.000265 s⁻¹
  kon: 61 M⁻¹ s⁻¹
R2R3 (WT) tau peptide; R2R3 WT peptide immobilized, 25°C, PBS pH 7.4
  Kd: 4.35 µM
[3]
  elongation of preformed fibrils: inhibit the elongation

## C/C=C(/C=O)[C@@H](CC=O)CC(=O)OCCc1ccc(O)cc1 [OLC, oleocanthal]
[4]
  IC50: > 10 µM
[2]
  induction of endogenous tau aggregation (FRET-positive inclusions) by compound alone: No FRET-positive aggregates were detected; also recorded: no FRET‐positive inclusions were detected
[3]
  elongation of preformed fibrils: inhibit the elongation
